Measurements as given in patent US20110097741A1, “PARTIAL T1R2 NUCLEIC ACID SEQUENCE, RECEPTOR PROTEIN AND ITS USE IN SCREENING ASSAYS” (priority 2006, published 2011).

Legend:
[1] = system: host cells expressing only the G16gust44 chimeric G-protein; experiment: Fluo-4 calcium assay in negative control cells expressing G16gust44 only; type: cell-based, human
Description: As a negative control, mock transfected cells were exposed to the same concentration of ligand and the concentration of calcium traces not corresponding to a signal was determined.
As a result of said evalution, it was determined that when these cell lines are exposed to perillartine, many of cell clones respond to this stimulus with a significant increase in fluorescence which is greater than 10-times of the signal compared to the signal of the negative control (cells that express solely G16gust44 promiscuous G-protein but not T1R2-TMD).
The signals elicited by the test agents in cells that stably express G16gust44 and T1R2-TMD containing cells (formed as described in example 3) were compared to the signals obtained in cells that stably express G16gust44 and the T1R2/T1R3 heterodimer (formed as described in example 4), and as a negative control, cells that stably express G16gust44 were used.

T1R2/T1R3 heterodimer = biological target: T1, T1R2/T1R3 heterodimer (Homo sapiens, UniProt Q8TE23); experiment: Fluo-4 calcium assay in cells stably expressing G16gust44 and the T1R2/T1R3 heterodimer; type: cell-based; conditions: 4-parameter logistic fit
T1 construct: expressed in transfected cells; host or cells: HEK-293-T-Rex based cell line stably expressing G16gust44
T1 sequence (Q8TE23 20-839): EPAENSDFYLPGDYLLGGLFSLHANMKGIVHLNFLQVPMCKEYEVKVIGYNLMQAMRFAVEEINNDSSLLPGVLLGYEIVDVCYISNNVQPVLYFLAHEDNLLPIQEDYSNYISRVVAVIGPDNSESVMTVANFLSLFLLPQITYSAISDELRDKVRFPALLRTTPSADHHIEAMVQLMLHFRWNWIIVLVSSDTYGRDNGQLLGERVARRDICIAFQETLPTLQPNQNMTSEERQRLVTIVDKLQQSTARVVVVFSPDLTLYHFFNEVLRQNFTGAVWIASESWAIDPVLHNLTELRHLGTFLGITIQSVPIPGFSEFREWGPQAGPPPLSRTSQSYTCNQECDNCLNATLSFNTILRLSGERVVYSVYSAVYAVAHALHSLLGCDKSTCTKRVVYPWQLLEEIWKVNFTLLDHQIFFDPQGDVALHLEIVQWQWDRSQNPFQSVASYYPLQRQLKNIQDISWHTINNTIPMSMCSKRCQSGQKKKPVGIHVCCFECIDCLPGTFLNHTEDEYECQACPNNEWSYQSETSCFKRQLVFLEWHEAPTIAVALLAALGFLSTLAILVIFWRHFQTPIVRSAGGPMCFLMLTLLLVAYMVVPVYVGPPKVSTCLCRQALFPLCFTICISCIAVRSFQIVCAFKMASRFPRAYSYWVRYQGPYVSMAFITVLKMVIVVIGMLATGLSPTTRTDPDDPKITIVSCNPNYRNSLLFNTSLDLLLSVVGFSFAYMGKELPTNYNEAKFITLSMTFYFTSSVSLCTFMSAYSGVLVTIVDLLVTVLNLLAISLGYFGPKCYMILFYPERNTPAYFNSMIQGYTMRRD
T1 sequence (Q7RTX0 21-852 C757R partner): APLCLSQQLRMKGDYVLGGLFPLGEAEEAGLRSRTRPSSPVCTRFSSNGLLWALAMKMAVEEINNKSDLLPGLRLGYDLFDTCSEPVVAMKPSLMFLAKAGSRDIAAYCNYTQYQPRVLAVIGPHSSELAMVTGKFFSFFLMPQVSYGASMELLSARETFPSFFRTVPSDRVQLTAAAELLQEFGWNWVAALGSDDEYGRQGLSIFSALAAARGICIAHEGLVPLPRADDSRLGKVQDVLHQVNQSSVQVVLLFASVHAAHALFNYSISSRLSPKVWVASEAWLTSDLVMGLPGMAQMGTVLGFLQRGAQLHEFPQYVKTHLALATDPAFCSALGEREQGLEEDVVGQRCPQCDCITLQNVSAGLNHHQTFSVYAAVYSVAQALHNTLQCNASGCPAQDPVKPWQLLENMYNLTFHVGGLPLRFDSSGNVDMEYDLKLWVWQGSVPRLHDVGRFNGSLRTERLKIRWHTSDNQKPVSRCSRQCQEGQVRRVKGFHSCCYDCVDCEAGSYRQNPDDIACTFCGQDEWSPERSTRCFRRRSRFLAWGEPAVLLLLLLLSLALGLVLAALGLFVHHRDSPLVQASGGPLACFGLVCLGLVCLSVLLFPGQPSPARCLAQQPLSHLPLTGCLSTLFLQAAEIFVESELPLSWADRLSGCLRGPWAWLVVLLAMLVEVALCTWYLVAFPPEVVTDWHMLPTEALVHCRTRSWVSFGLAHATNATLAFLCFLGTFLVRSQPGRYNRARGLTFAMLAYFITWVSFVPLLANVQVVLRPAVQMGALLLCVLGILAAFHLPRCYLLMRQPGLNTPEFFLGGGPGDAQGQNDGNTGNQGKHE
Description: (§1) All examples use the human receptors.
At the time of the assay, the growth medium was discarded and cells were incubated for 1 hour (at 37° C. in the dark) with 50 μl of a calcium assay solution consisting of 1.5 μM Fluo-4 AM (Molecular Probes™, Invitrogen, US) and 2.5 μM probenicid (Sigma-Aldrich) dissolved in a C1 buffer solution. C1 buffer solution contains 130 mM NaCl, 5 mM KCl, 10 mM Hepes, 2 mM CaCl2 and 10 mM glucose (pH 7.4). […]
(§2) For assay reading, the plate was placed in a FLIPR (fluorescence imaging plate reader (FLIPR-Tetra, Molecular Devices)), and receptor activation was initiated following addition of 20 μl of a 10× concentrated ligand stock solution.
(§3) Fluorescence was continuously monitored for 15 seconds prior to ligand addition and for 105 seconds after ligand addition (45-105 sec may be sufficient). […]
(§4) Fluorescence Increase=Maximum Fluorescence−baseline fluorescence,
wherein the baseline fluorescence represents the mean fluorescence calculated for the first 10 to 15 seconds prior to ligand addition. […]
Resistant colonies were expanded, and identified as containing the T1R2/T1R3 sweet heterodimer by their response to various sweetener compounds including sucrose, sucralose, aspartame and acesulfame K, which was determined via automated fluorimetric imaging on the FLIPR-Tetra instrumentation (Molecular Devices) using the methods described in example 1. […]

T1R2-TMD = biological target: T2, T1R2-TMD (Homo sapiens, UniProt Q8TE23); experiment: Fluo-4 calcium assay in HEK293 cells stably expressing G16gust44 and T1R2-TMD; type: cell-based
T2 construct: first 45 amino acids of rat somatostatin type 3 receptor plus linker) (N); expressed in transfected cells; host or cells: HEK-293-T-Rex based cell line stably expressing G16gust44
T2 sequence (Q8TE23 564-839): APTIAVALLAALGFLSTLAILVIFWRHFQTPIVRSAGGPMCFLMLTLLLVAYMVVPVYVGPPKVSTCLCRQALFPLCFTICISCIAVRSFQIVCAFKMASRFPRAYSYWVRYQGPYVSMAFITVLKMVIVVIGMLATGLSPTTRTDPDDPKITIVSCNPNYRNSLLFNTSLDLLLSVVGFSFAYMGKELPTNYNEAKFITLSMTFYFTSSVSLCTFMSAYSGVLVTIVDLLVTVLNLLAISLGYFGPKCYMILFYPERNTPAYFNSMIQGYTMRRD
Text: as §1
Fluo-4 is a fluorescent indicator for intracellular calcium and allows to determine changes in the calcium concentration, in particular an increase in response to receptor activation occurring after ligand addition (for example perillartine or methyl chavicol).
HEK293 cells stably expressing G alpha 16 gustducin 44 and transfected with T1R2-TMD as described in example 3 were used as host cells.
Black, clear-bottom 96-well plates were used for all assays. They were seeded the day before with 8500 transfected cells per well and maintained at 37° C. overnight in a growth medium appropriate for the cells used. For HEK293 cells, Dulbecco's Modified Eagle medium containing high glucose, L-glutamine, pyroxidine hydrochloride, and supplemented with 10% fetal bovine serum was used for growth and maintenance of the HEK293 cells.
At the time of the assay, the growth medium was discarded and cells were incubated for 1 hour (at 37° C. in the dark) with 50 μl of a calcium assay solution consisting of 1.5 μM Fluo-4 AM (Molecular Probes™, Invitrogen, US) and 2.5 μM probenicid (Sigma-Aldrich) dissolved in a C1 buffer solution. C1 buffer solution contains 130 mM NaCl, 5 mM KCl, 10 mM Hepes, 2 mM CaCl2 and 10 mM glucose (pH 7.4).
After the initial 1 hour loading period, the plates were washed 5 times with 100 μl per well of C1 buffer using an automated plate washer (BioTek) and after washing, the plate was further incubated for 30 minutes at room temperature in the dark to allow for complete de-esterification of the Fluo-4-AM. […]
as §2, §3, §4
wherein the baseline fluorescence represents the mean fluorescence calculated for the first 10 to 15 seconds prior to ligand addition.
As a negative control, mock transfected cells were exposed to the same concentration of ligand and the concentration of calcium traces not corresponding to a signal was determined. […]
The data was calculated as described in example 1 and illustrated the net increase in fluorescence over baseline following stimulation of the cells with 50 μM perillartine. […]
HEK293T cells that stably express G16gust44 and T1R2-TMD (formed as described in example 3) are loaded with the calcium dye Fluo-4, and their response to perillartine is measured by using fluorescent calcium signals as described in example 1. […]

Row | SMILES | Negative control [RFU] ([1]; 100 micromolar, cells stably expressing G16gust44 only, average of two replicates) | EC50 (T1R2/T1R3 heterodimer) [µM] | calcium signaling upon stimulation (T1R2-TMD; 50 μM, cells stably expressing human T1R2-TMD, not in negative control) | AVERAGE [RFU] (net increase in fluorescence over baseline) (T1R2-TMD; T1R2-TMD/G16gust44 cells, 50 μM perillartine, no tetracycline induction) | EC50 (T1R2-TMD; T1R2-TMD, 4-parameter logistic fit, doses 0.1 to 200 micromolar) [µM] | increase in fluorescence, signal compared to the signal of the negative control (T1R2-TMD; many cell clones, 50 μM perillartine, absence of tetracycline induction, vs cells expressing solely G16gust44) | AVERAGE [RFU] (net increase in fluorescence over baseline) ([1]; G16gust44 ONLY (neg. control) cells, 50 μM perillartine)
1 | C=CCc1ccc(OC)cc1 [Methyl chavicol] | 732.195 | – | – | – | – | – | –
2 | C=C(C)[C@@H]1CC=C(/C=N/O)CC1 [perillartine] | – | 3.5 | Significant increases | 973.06 | 6.2 | greater than 10 times | 73.78
